Laboratory results taken from patent US20110086429A1, “METHODS AND DEVICES FOR DETECTING OZONE AND CARBONYL-CONTAINING COMPOUNDS” (SIGMA-ALDRICH CO., priority 2007, published 2011).
Values after ≈ are worked out from the molar mass of the structure shown.

Experiment: Solubility in acetonitrile, DMSO and their mixtures
Type: physicochemical

solubility (organic solvent or mixture, acetonitrile, FIG. 3 at 25° C.) [µM] | SMILES | solubility in DMSO (in words) (DMSO) | solubility in acetonitrile (in words) (acetonitrile)
– | O=[N+]([O-])c1ccc(NN=Cc2ccncc2)c([N+](=O)[O-])c1 [pyridine-4-aldehyde 2,4-DNPhydrazone, pyridine-4-aldehyde 2,4-dinitrophenylhydrazone] | relatively high concentration | poor solubility
~790 (≈ 84.6 µg/mL) | O=Cc1ccncc1 [pyridine-4-aldehyde] | – | –
